Measurements from patent US8574865B2, “Methods and assays for identifying compounds that modulate protein-protein interactions” (Sanofi, priority 2007, dated 2013).
Entries after “also recorded” stand apart in the source; their conditions may differ.

Experiments:
ADRB2 = target: T1, ADRB2 (Homo sapiens, UniProt P07550); assay: GPCR Per-Luc assay, HEK293 cells stably expressing Arr-luc234V233 and transiently transfected with ADRB2-TEV; assay type: cell-based; settings: different concentrations, two hours
T1 construct: expressed in transfected cells

[1] = system: Endogenous receptor EDG in HEK293 cells; assay: FLIPR and cAMP assays; settings: HEK293 endogenous EDG receptors
V2 vasopressin receptor = target: T2, V2 vasopressin receptor (Homo sapiens, UniProt P30518); assay: GPCR Per-Luc assay, HEK293 cells stably expressing Arr-luc234V233 and transfected with V2-TEV; assay type: cell-based; settings: different concentrations, two hours
T2 construct: expressed in transfected cells; host or cells: HEK293 stably expressing Arr-luc234V233
T2 sequence (P30518 whole entry): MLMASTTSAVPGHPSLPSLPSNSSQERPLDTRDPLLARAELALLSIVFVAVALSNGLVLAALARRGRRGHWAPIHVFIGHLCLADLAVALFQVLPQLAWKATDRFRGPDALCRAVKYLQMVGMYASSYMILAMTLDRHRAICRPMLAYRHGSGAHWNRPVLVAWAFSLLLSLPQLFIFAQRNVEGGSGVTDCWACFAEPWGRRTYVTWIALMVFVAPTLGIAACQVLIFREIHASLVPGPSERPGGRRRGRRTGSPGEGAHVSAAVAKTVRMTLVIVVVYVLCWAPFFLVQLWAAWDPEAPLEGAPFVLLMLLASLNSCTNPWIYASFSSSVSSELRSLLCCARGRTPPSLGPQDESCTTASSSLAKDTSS
Protocol: HEK cells stably transfected with an arrestin/permuted luciferase construct were transiently transfected with a V2-TEV construct and induced with the agonist, 8AVP, arginine vasopressin (left graph).
Bright-GLO™ luciferase reagent was added to cells.

T1 sequence (P07550 whole entry): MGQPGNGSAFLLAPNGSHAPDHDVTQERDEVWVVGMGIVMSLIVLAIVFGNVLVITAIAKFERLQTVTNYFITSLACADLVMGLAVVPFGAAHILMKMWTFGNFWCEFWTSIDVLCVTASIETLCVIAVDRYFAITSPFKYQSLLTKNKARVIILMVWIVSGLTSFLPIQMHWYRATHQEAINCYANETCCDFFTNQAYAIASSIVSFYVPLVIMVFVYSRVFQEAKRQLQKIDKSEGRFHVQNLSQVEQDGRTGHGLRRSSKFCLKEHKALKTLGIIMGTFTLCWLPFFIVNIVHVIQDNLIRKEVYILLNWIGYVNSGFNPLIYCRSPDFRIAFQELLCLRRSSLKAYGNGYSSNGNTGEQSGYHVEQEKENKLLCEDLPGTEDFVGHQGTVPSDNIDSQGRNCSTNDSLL

luciferase activity, compound alone (ADRB2)	Compound	signal in FLIPR and cAMP assays [1]	luciferase activity (β arrestin recruitment to V2) (V2 vasopressin receptor)
did not affect the luciferase activity	CCCCCCCCCCCCC/C=C/[C@@H](O)[C@@H](N)COP(=O)(O)O [S1P, sphingosine-1-phosphate]	did produce positive signals	
	CCOc1ccc2c(c1)C1(CCC(OCCN3CCOCC3)CC1)C(=O)N2S(=O)(=O)c1ccc(C(=O)NC(C)(C)C)cc1OC (stereo not drawn) [SR121463]		increasing levels of luminescence were observed with increasing amounts; also recorded: induced a G protein-independent, arrestin-dependent signal
